Assay results as given in US20160158317A1, “Antimicrobial Peptide Variants and Polynucleotides Encoding Same” (Adenium Biotech A/S, priority 2010, published 2016).
Values joined by “and” are separate entries in the source; they are usually repeats but may differ in a detail not shown here. Equal entries are not always repeated. Marks after values point to notes of the source that are not given here.

Experiments:
E. coli AID#172 [1] = experiment: Neutropenic thigh infection model, dose-response and estimation of ED50 (Example 4); type: in vivo, Escherichia coli
Experimental: (§1) The purpose of this study was to investigate the dose-response relationship following intravenous (i.v.) administration of a single dose of NZ17074 ranging from 0.16-12 mg/kg. The effect was tested against E. coli AID#172 in the neutropenic thigh model. Treatment with 40 mg/kg meropenem was included as a positive control group. The colony counts in thighs were determined at 5 hours after treatment.
The thigh infection model is a well-recognized model for studies of antimicrobial effect and tissue penetration as described by S. Gudmundsson & H. Erlensdóttir: Handbook of Animal Models of Infection (1999), ed. by O. Zak & M. A. Sande, Academic Press, San Diego, US and in several publications. Reviewed by D. Andes & C. Craig: Animal model pharmacokinetics and pharmacodynamics: a critical review. International Journal of Antimicrobial Agents 19(4): 261-268.
• 40 outbred, NMRI female mice, 25-30 grams (Harlan Scandinavia) • E. coli AID#172 from Statens Serum Institute, Copenhagen, Denmark: Clinical isolate from a human wound from 2003. Multiresistant (Ampicillin, Ceftazidime, Aztreonam, Gentamicin, Ciprofloxacin) • NZ17074 in Ringer Acetate, pH 6: 1.2 mg/ml, 6.0 ml. The solution was stored at 4° C. until use. Analyses of the dose formulations used were performed after completion of the in-life phase of the study and gave the following results: […]
(§2) The mice were observed during the study and scored 0-5 based on their behaviour and clinical signs. • Score 0: Healthy. • Score 1: Minor clinical signs of infection and inflammation e.g. observations of minor signs of distress or changed activity. • Score 2: Clear signs of infection like, social withdrawal, lack of curiosity, changed body position, piloerection, or changes in pattern of movement. • Score 3: Severe signs of infection like stiff movements, lack of curiosity, changed body position, piloerection, pain, or changes in pattern of movement. • Score 4: Severe pain and the mouse was sacrificed immediately to minimize the suffering of the animal. • Score 5: The mouse was dead.
Colony counts were determined from thighs at 0 and 5 hours. […]

E. coli AID#172 [2] = experiment: Neutropenic murine peritonitis/sepsis model, dose-response and estimation of ED50 (Example 2); type: in vivo, Escherichia coli; parameters: key to Clinical score T = 0 hour / Clinical score T = 5 hours: Score 0: Healthy.; Score 1: Minor clinical signs of infection and inflammation e.g. observations of minor signs of distress or changed activity.; Score 2: Clear signs of infection like, social withdrawal, lack of curiosity, changed body position, piloerection, or changes in pattern of movement.; Score 3: Severe signs of infection like stiff movements, lack of curiosity, changed body position, piloerection, pain, or changes in pattern of movement.; Score 4: Severe pain and the mouse was sacrificed immediately to minimize the suffering of the animal.; Score 5: The mouse was dead
Experimental: as §1, with “peritonitis” for “thigh”, “blood and peritoneal fluid” for “thighs”
The murine peritonitis/sepsis model is a well-recognized model for studies of antimicrobial activity as described by N. Frimodt-Møller and J. D. Knudsen in Handbook of Animal Models of Infection (1999), ed. by O. Zak & M. A. Sande, Academic Press, San Diego, US.
• 30 outbred, NMRI female mice, 25-30 grams (Harlan Scandinavia) • E. coli AID#172 from Statens Serum Institute, Copenhagen, Denmark. Clinical isolate from a human wound from 2003. Multiresistant (Ampicillin, Ceftazidime, Aztreonam, Gentamicin, Ciprofloxacin) • NZ17074 in Ringer Acetate, pH 6: 1.2 mg/ml, 6.0 ml. The solution was stored at 4° C. until use. Analyses of the dose formulations used were performed after completion of the in-life phase of the study and gave the following results:
The mice were rendered neutropenic by injecting 0.5 ml cyclophosphamide solution intraperitoneally 4 days (200 mg/kg) and 1 day (100 mg/kg) prior to inoculation.
Fresh overnight E. coli AID#172 colonies from a 5% Horse Blood Agar plate were suspended and diluted in sterile saline to approximately 2×10^6 CFU/ml. One hour before start of treatment (time −1 hr) mice were inoculated intraperitoneally with 0.5 ml of the E. coli suspension in the lateral lower quadrant of the abdomen. Approximately ½-1 hour after treatment, mice were treated orally with 45 microliters neurophen (20 mg ibuprofen/ml corresponding to 30 mg/kg) as a pain relief.
The mice were treated i.v. in the lateral tail vein over approximately 30 seconds with 10 ml/kg with a single dose of NZ17074, meropenem or vehicle at time 0 hour (see Table 1). The dosing was based on a mean weight of 30 g. Mice that weighed 28-32 g received 0.30 ml solution. Mice that weighed 27-28 g received 0.25 ml solution and mice that weighed 32.1-36 g received 0.35 ml solution.
as §2
Colony counts were determined from blood and peritoneal fluid at 0 and 5 hours. The mice were anaesthetized with CO2+O2 and blood was collected from axillary cutdown in 1.5 ml EDTA coated eppendorf tubes. The mice were sacrificed immediately after blood sampling and a total of 2 ml sterile saline was injected i.p. and the abdomen gently massaged before it was opened and fluid sampled with a pipette. Each sample was then 10 fold diluted in saline and 20-microliter spots were applied on blue agar plates. All agar plates were incubated 18-22 hours at 35° C. in ambient air.
The colony counts were performed at the start of treatment and 5 hours after treatment. The CFU numbers are log10 transformed before performing calculations.

C[C@@H](O)[C@H]1C(=O)N2C(C(=O)O)=C(S[C@@H]3CN[C@H](C(=O)N(C)C)C3)[C@H](C)[C@H]12 [meropenem]
CFU levels in thigh compared to vehicle (E. coli AID#172 [1]; 40 mg/kg i.v., 5 hours): slight but not significant reduction | log10 CFU thigh mean (E. coli AID#172 [1]; Meropenem 40 mg/kg single dose, thigh, T = 5, group mean without outlier, not significant vs vehicle): 4.25 log10 CFU/ml | log10 CFU thigh (E. coli AID#172 [1]; Meropenem 40 mg/kg single dose, thigh, T = 5, individual mice, ¤ value excluded from mean as outlier): 3.08¤ log10 CFU/ml and 3.81¤ log10 CFU/ml and 4.99 log10 CFU/ml and 3.94 log10 CFU/ml | CFU levels in blood and peritoneal fluid compared to vehicle (E. coli AID#172 [2]; 40 mg/kg i.v., 5 hours, blood p<0.05, peritoneal fluid p<0.01): significant reduction | Clinical score T = 0 hour (E. coli AID#172 [2]; Meropenem 40 mg/kg single dose group, score at start of treatment, individual mice): 1 | log10 CFU Mean Blood (E. coli AID#172 [2]; Meropenem 40 mg/kg single dose, blood, T = 5, group mean, p < 0.05 vs vehicle): 2.38* log10 CFU/ml | log10 CFU Blood (E. coli AID#172 [2]; Meropenem 40 mg/kg single dose, blood, T = 5, individual mice): 2.48 log10 CFU/ml and 1.70 log10 CFU/ml and 2.95 log10 CFU/ml | Clinical score T = 5 hours (E. coli AID#172 [2]; Meropenem 40 mg/kg single dose, individual mice): 1 (2×) and 0 | log10 CFU mean PF (E. coli AID#172 [2]; Meropenem 40 mg/kg single dose, peritoneal fluid, T = 5, group mean, p < 0.01 vs vehicle): 2.64** log10 CFU/ml | log10 CFU PF (E. coli AID#172 [2]; Meropenem 40 mg/kg single dose, peritoneal fluid, T = 5, individual mice): 3.92 log10 CFU/ml and 1.70 log10 CFU/ml and 2.30 log10 CFU/ml
